The source of these data is patent US11612586B2, “Indole regulation of antigen presenting cells” (THE TEXAS A&M UNIVERSITY SYSTEM, priority 2016, dated 2023).

Each structure is given as a SMILES string.

For one test, the system named is Stat3. Kind of test: IL-6-induced phospho-Stat3 in BMDCs, flow cytometry. It counts as cell-based, mouse. The method, then:
Flow cytometric analysis was performed on BMDCs conditioned with indole from day 3 of culture and subsequently stimulated with IL-6 (10 ng/ml) for the given times. Cells were stained for phospho-Stat3 and analyzed by flow cytometry.
Flow cytometric analysis of BMDCs from WT or AhrKO mice cultured in the presence of indole or DMF from day 3. DCs were stimulated with IL-6 (10 ng/ml) for the given times and stained for phospho-Stat3, which was detected by flow cytometry. Stat3 signaling is shown as percent of phosphorylated cells (FIG. 10A), and MFI of the Stat3 positive population (FIGS. 10B and 10C). The specific Stat3 inhibitor, cucurbitacin I, was included as a negative control. Representative data is shown from one of four independent experiments.
BMDCs were conditioned with indole from day 3 and then induced Stat3 signaling by stimulation with IL-6 (FIGS. 6A and 6B). While Stat3 has both a tyrosine (Y705) and serine (S727) activation site, tyrosine phosphorylation is mediated by Janus kinases and required for Stat3 nuclear localization and subsequent DNA binding. Thus, the […] was queried for this study.
For orientation: In flow cytometry, cells or beads pass a laser one at a time.

The next test relates to B220 (CD45R). Nature of the test: B220 surface expression on BMDCs. It counts as cell-based, mouse. Conditions: BMDCs cultured from day 3 with indole (1 mM) or retinoic acid (1 μM). How it is done: FIGS. 12A and 12B graphically illustrate that indole induces CCR9 and B220 on DCs. BMDCs were cultured in the presence of indole (1 mM), retinoic acid (1 μM), or DMF solvent control from day 3. On day 7, DCs were surface stained for expression of CCR9 and B220 and analyzed by flow cytometry. […] Mean of three independent experiments. * indicates p<0.05 for one-way ANOVA followed by Dunnett's post-test.
An indole-induced upregulation of the B220 (CD45R) antigen was also observed (FIGS. 12A and 12B), which is widely used to distinguish the plasmacytoid DC lineage and is believed to contribute to gut homing. However, more recently B220 has been reported to distinguish a DC subset more closely developmentally related to conventional rather than plasmacytoid DCs and a precursor to resident CD8+ and CD8− conventional DCs.

The subject of the next test is CCR7. Nature of the test: CCR7 surface expression on BMDCs. It counts as cell-based, mouse. How it is done: FIG. 14 graphically illustrates that indole upregulates CCR7 expression in DCs. Flow cytometric analysis were performed on BMDCs cultured from day 3 in the presence of indole (1 mM), RA (1 uM), or DMF control and either surface stained for CCR7 expression directly or treated with LPS (1 ug/ml) for 24 hours prior to CCR7 staining.
Encountering maturation-inducing stimuli induces an upregulation of the chemokine receptor CCR7 in DCs. This shift promotes DC migration from peripheral tissues to the lymph nodes to present captured antigen. CCR7 expression facilitates this migration by rendering DCs sensitive to the chemoattractants, CCL19 and CCL21, which direct DCs to T cell areas of lymphoid tissues. […] Exposure to LPS is a DC-activating signal known to upregulate CCR7 expression in order to prime DCs for lymph node entry. Consistent with the literature, exposure to LPS for 24 hours further induced CCR7 expression in our BMDC cultures overall. Here, indole-conditioned DCs once again expressed a higher level of CCR7 expression compared to controls by over 3-fold in magnitude (FIG. 14).

The subject of another test is Erk. Nature of the test: phospho-Erk signaling in BMDMs. It counts as cell-based, mouse. The method, then: The PI3K/Akt and MAPK/Erk signaling pathways regulate many cellular processes including survival, apoptosis, growth, and cytokine production. […] Specifically, BMDMs were treated with indole (1 mM) or DMF control for 18 hours, then stimulated with LPS (10 ug/ml) or CpG (5 uM) for 30 minutes. Cells were stained for phospho-Akt or phospho-Erk and analyzed by flow cytometry.
The inventors performed a series of assays where bone marrow derived macrophages (BMDMs), bone marrow derived dendritic cells (BMDCs), and splenic dendritic cells (splenic DCs), were exposed to a series of TDMMs, including indole, indole-3-acetate (I3AT), 5-hydroxyindole (5HI), and indole-3-pyruvate (I3P), as well as indole-3-carbinol (I3C; a plant derived compound) to be used for a positive control (1 mM for 24 hours). The BMDMs and BMDCs were stimulated with LPS for 4 hours and assayed at day 7 for expression of various pro-inflammatory cytokines. In a similar assay, the BMDMs and BMDCs were stimulated with LPS or CpG, respectively, for 15 minutes and assayed for pAKT and pERK signaling, which is a reflection of pro-inflammatory response.

Another test deals with DCs. Nature of the test: Antigen-uptake assay in DCs. Conditions: FITC-labeled OVA particles.
Test [1] relates to reactive oxygen species (ROS). Kind of test: Reactive oxygen species production in DC2.4 and BMDC.
Protocol: The secretion of reactive oxygen species (ROS) and nitric oxide (NO) was investigated in DC2.4 and BMDC.
Reactive oxygen species production was measured using the CellRox Deep Red Reagent (ThermoFisher). […] Presence of ROS oxidizes the CellRox reagent to a fluorescent state that can be subsequently analyzed via flow cytometry.

As to `c1ccc2[nH]ccc2c1` [Indole, indole], the “peak phosphorylation of Stat3 (percentage of DCs)” value with Stat3 (BMDCs, 1 mM indole from day 3, IL-6 10 ng/ml, 15 minutes post-stimulation) is reported as 8%. The “suppression of phospho-Stat3 MFI” value with Stat3 (BMDCs, indole from day 3, IL-6 stimulation, throughout 60 minute timecourse) is not below 2 fold. Besides, in the test with Stat3 (indole-DCs generated from WT or AhR−/− bone marrow), the “inhibition of Stat3 phospho-signaling, WT versus AhR−/−” value is recorded as “nearly equivalent inhibition”. Further, in the test with B220 (CD45R), the “B220 (CD45R) expression on BMDCs” value is on record as “upregulation”. The “CCR7 expression compared to controls” value with CCR7 (BMDCs, indole 1 mM from day 3, LPS for 24 hours) is recorded as “over 3 fold”. For the same compound, in the test with CCR7 (day 7 freshly harvested BMDCs, indole 1 mM from day 3), the “increase in CCR7 expression over RA or solvent controls” value is “approximately 5 fold”. For the same compound, the pERK result in the test on Erk (1 mM TDMM 24 hours, LPS 1 ug/ml 15 minutes) is given as “↓”. Further, the “dampening of pErk signaling” value in the test with Erk (indole 1 mM 18 hours, LPS (10 ug/ml) or CpG (5 uM) 30 minutes) is given as “approximately 50%”. Also, the “particle uptake by DCs” value in the test on DCs is listed as “did not alter particle uptake”. The “secretion of reactive oxygen species (ROS)” value in test [1] is on record as “intact”.
